# Experimental data published in article PMC10141580, “Cyclic Dichalcogenides Extend the Reach of Bioreductive Prodrugs to Harness Thiol/Disulfide Oxidoreductases: Applications to seco-Duocarmycins Targeting the Thioredoxin System” (ACS Central Science, 2023).
# Read-outs that look alike come from different tables or passages of the source.
# Test system: NCI-60 standardized human tumor cell line panel
# Assay: cells
# Type: cell-based
# Conditions: for GI50: Homo sapiens
structure (smiles),measurement,setting,value
COc1cc2cc(C(=O)N3C[C@@H](CCl)c4c3cc(OC(=O)N3CCN(C(=O)CCC(=O)N5CCN(C)CC5)[C@H]5CSSC[C@H]53)c3ccccc43)[nH]c2c(OC)c1OC [P-SS66C-CBI-TMI],GI50,"PC-3, PC-3, read-out: GI50",480 nM
same,GI50,"RPMI-8226, RPMI-8226, read-out: GI50",140 nM
same,GI50,"RPMI-8226, cell line RPMI-8226 (LE:RPMI-8226), TMI sheet, read-out: NCI-60 screening: Log(GI50) (converted)",141 nM
same,GI50,"RPMI-8226, cell line RPMI-8226 (LE:RPMI-8226), TMI sheet, read-out: NCI-60 screening: Raw GI50",140 nM
same,GI50,"RXF 393, RXF 393 (RE) cell line, log10 of GI50 in M, read-out: NCI-60 screening: Log(GI50) (converted)",34.7 nM
same,GI50,"RXF 393, RXF 393, read-out: GI50",35 nM
same,GI50,"SF-268, SF-268, read-out: GI50",58 nM
same,GI50,"SF-268, cell line SF-268 (CNS:SF-268), TMI sheet, read-out: NCI-60 screening: Log(GI50) (converted)",58.9 nM
same,GI50,"SF-295, SF-295, read-out: GI50",110 nM
same,GI50,"SF-295, cell line SF-295 (CNS:SF-295), TMI sheet, read-out: NCI-60 screening: Log(GI50) (converted)",112 nM
same,GI50,"SF-295, cell line SF-295 (CNS:SF-295), TMI sheet, read-out: NCI-60 screening: Raw GI50",110 nM
same,GI50,"SF-539, SF-539, read-out: GI50",39 nM
same,GI50,"SK-MEL-5, SK-MEL-5, read-out: GI50",110 nM
same,GI50,"SK-MEL-5, cell line SK-MEL-5 (ME:SK-MEL-5), TMI sheet, read-out: NCI-60 screening: Log(GI50) (converted)",112 nM
same,GI50,"SK-MEL-5, cell line SK-MEL-5 (ME:SK-MEL-5), TMI sheet, read-out: NCI-60 screening: Raw GI50",110 nM
same,GI50,"SK-MEL-28, SK-MEL-28, read-out: GI50",160 nM
same,GI50,"SK-MEL-28, cell line SK-MEL-28 (ME:SK-MEL-28), TMI sheet, read-out: NCI-60 screening: Log(GI50) (converted)",158 nM
same,GI50,"SK-OV-3, SK-OV-3 (OV) cell line, log10 of GI50 in M, read-out: NCI-60 screening: Log(GI50) (converted)",72.4 nM
same,GI50,"SK-OV-3, SK-OV-3, read-out: GI50",72 nM
same,GI50,"SN12C, SN12C (RE) cell line, log10 of GI50 in M, read-out: NCI-60 screening: Log(GI50) (converted)",44.7 nM
same,GI50,"SN12C, read-out: GI50",45 nM
same,GI50,"SNB-19, SNB-19, read-out: GI50",91 nM
same,GI50,"SNB-19, cell line SNB-19 (CNS:SNB-19), TMI sheet, read-out: NCI-60 screening: Log(GI50) (converted)",91.2 nM
same,GI50,"SR, read-out: GI50",19 nM
same,GI50,"SW-620, SW-620, read-out: GI50",130 nM
same,GI50,"SW-620, cell line SW-620 (CO:SW-620), TMI sheet, read-out: NCI-60 screening: Log(GI50) (converted)",132 nM
same,GI50,"SW-620, cell line SW-620 (CO:SW-620), TMI sheet, read-out: NCI-60 screening: Raw GI50",130 nM
same,GI50,"T47D, T-47D, read-out: GI50",230 nM
same,GI50,"T47D, cell line T-47D (BR:T-47D), TMI sheet, read-out: NCI-60 screening: Log(GI50) (converted)",229 nM
same,GI50,"TK-10, TK-10 (RE) cell line, log10 of GI50 in M, read-out: NCI-60 screening: Log(GI50) (converted)",1050 nM
same,GI50,"TK-10, TK-10, read-out: GI50",1000 nM
same,GI50,"U-251, U251, read-out: GI50",81 nM
same,GI50,"U-251, cell line U251 (CNS:U251), TMI sheet, read-out: NCI-60 screening: Log(GI50) (converted)",81.3 nM
same,GI50,"UACC-62, UACC-62, read-out: GI50",140 nM
same,GI50,"UACC-62, cell line UACC-62 (ME:UACC-62), TMI sheet, read-out: NCI-60 screening: Log(GI50) (converted)",135 nM
same,GI50,"UACC-62, cell line UACC-62 (ME:UACC-62), TMI sheet, read-out: NCI-60 screening: Raw GI50",140 nM
same,GI50,"UACC-257, UACC-257, read-out: GI50",270 nM
same,GI50,"UACC-257, cell line UACC-257 (ME:UACC-257), TMI sheet, read-out: NCI-60 screening: Log(GI50) (converted)",275 nM
same,GI50,"UACC-257, cell line UACC-257 (ME:UACC-257), TMI sheet, read-out: NCI-60 screening: Raw GI50",270 nM
same,GI50,"cell line M14 (ME:M14), TMI sheet, read-out: NCI-60 screening: Log(GI50) (converted)",123 nM
same,GI50,"cell line SF-539 (CNS:SF-539), TMI sheet, read-out: NCI-60 screening: Log(GI50) (converted)",38.9 nM
same,GI50,"cell line SR (LE:SR), TMI sheet, read-out: NCI-60 screening: Log(GI50) (converted)",19.5 nM
same,GI50,"cell line SR (LE:SR), TMI sheet, read-out: NCI-60 screening: Raw GI50",19 nM
same,NCI-60 screening: Log(RedIndex),"IGROV1 (OV) cell line, log10 reductive index vs P-CC60",1.07
same,"GI50/IC50, mean","NCI-60 vs ProliFiler, 19 overlapping cell lines",3.5
same,NCI-60 screening: Log(RedIndex),"NCI-H460 (LC) cell line, log10 reductive index vs P-CC60",1.36
same,NCI-60 screening: Log(RedIndex),"NCI-H522 (LC) cell line, log10 reductive index vs P-CC60",1.49
same,NCI-60 screening: Log(RedIndex),"OVCAR-3 (OV) cell line, log10 reductive index vs P-CC60",1.16
same,NCI-60 screening: Log(RedIndex),"OVCAR-4 (OV) cell line, log10 reductive index vs P-CC60",1.08
same,NCI-60 screening: Log(RedIndex),"OVCAR-5 (OV) cell line, log10 reductive index vs P-CC60",1.3
same,NCI-60 screening: Log(RedIndex),"OVCAR-8 (OV) cell line, log10 reductive index vs P-CC60",1.26
same,NCI-60 screening: Log(RedIndex),"PC-3 (PR) cell line, log10 reductive index vs P-CC60",0.82
same,NCI-60 screening: Log(RedIndex),"RXF 393 (RE) cell line, log10 reductive index vs P-CC60",1.48
same,NCI-60 screening: Log(RedIndex),"SK-OV-3 (OV) cell line, log10 reductive index vs P-CC60",1.47
same,NCI-60 screening: Log(RedIndex),"SN12C (RE) cell line, log10 reductive index vs P-CC60",1.43
same,NCI-60 screening: Log(RedIndex),"TK-10 (RE) cell line, log10 reductive index vs P-CC60",0.43
same,NCI-60 screening: Log(RedIndex),"cell line A549/ATCC (LC:A549/ATCC), TMI sheet",1.35
same,NCI-60 screening: Log(RedIndex),"cell line BT-549 (BR:BT-549), TMI sheet",1.04
same,NCI-60 screening: Log(RedIndex),"cell line CCRF-CEM (LE:CCRF-CEM), TMI sheet",0.57
same,NCI-60 screening: Log(RedIndex),"cell line COLO 205 (CO:COLO 205), TMI sheet",0.98
same,NCI-60 screening: Log(RedIndex),"cell line EKVX (LC:EKVX), TMI sheet",0.97
same,NCI-60 screening: Log(RedIndex),"cell line HCC-2998 (CO:HCC-2998), TMI sheet",1.45
same,NCI-60 screening: Log(RedIndex),"cell line HCT-15 (CO:HCT-15), TMI sheet",0.85
same,NCI-60 screening: Log(RedIndex),"cell line HCT-116 (CO:HCT-116), TMI sheet",0.99
same,NCI-60 screening: Log(RedIndex),"cell line HL-60(TB) (LE:HL-60(TB)), TMI sheet",1.19
same,NCI-60 screening: Log(RedIndex),"cell line HOP-62 (LC:HOP-62), TMI sheet",1.16
same,NCI-60 screening: Log(RedIndex),"cell line HOP-92 (LC:HOP-92), TMI sheet",1.15
same,NCI-60 screening: Log(RedIndex),"cell line HT29 (CO:HT29), TMI sheet",1.03
same,NCI-60 screening: Log(RedIndex),"cell line K-562 (LE:K-562), TMI sheet",0.88
same,NCI-60 screening: Log(RedIndex),"cell line KM12 (CO:KM12), TMI sheet",1.2
same,NCI-60 screening: Log(RedIndex),"cell line LOX IMVI (ME:LOX IMVI), TMI sheet",1.2
same,NCI-60 screening: Log(RedIndex),"cell line M14 (ME:M14), TMI sheet",1.09
same,NCI-60 screening: Log(RedIndex),"cell line MALME-3M (ME:MALME-3M), TMI sheet",1.07
same,NCI-60 screening: Log(RedIndex),"cell line MCF7 (BR:MCF7), TMI sheet",1.33
same,NCI-60 screening: Log(RedIndex),"cell line MDA-MB-435 (ME:MDA-MB-435), TMI sheet",1.08
same,NCI-60 screening: Log(RedIndex),"cell line MOLT-4 (LE:MOLT-4), TMI sheet",0.98
same,NCI-60 screening: Log(RedIndex),"cell line NCI-H23 (LC:NCI-H23), TMI sheet",1.4
same,NCI-60 screening: Log(RedIndex),"cell line NCI-H226 (LC:NCI-H226), TMI sheet",0.77
same,NCI-60 screening: Log(RedIndex),"cell line RPMI-8226 (LE:RPMI-8226), TMI sheet",1.02
same,NCI-60 screening: Log(RedIndex),"cell line SF-268 (CNS:SF-268), TMI sheet",1.42
same,NCI-60 screening: Log(RedIndex),"cell line SF-295 (CNS:SF-295), TMI sheet",1.15
same,NCI-60 screening: Log(RedIndex),"cell line SF-539 (CNS:SF-539), TMI sheet",1.53
same,NCI-60 screening: Log(RedIndex),"cell line SK-MEL-5 (ME:SK-MEL-5), TMI sheet",1.17
same,NCI-60 screening: Log(RedIndex),"cell line SK-MEL-28 (ME:SK-MEL-28), TMI sheet",1.35
same,NCI-60 screening: Log(RedIndex),"cell line SNB-19 (CNS:SNB-19), TMI sheet",1.39
same,NCI-60 screening: Log(RedIndex),"cell line SR (LE:SR), TMI sheet",1.15
same,NCI-60 screening: Log(RedIndex),"cell line SW-620 (CO:SW-620), TMI sheet",1.15
same,NCI-60 screening: Log(RedIndex),"cell line T-47D (BR:T-47D), TMI sheet",0.92
same,NCI-60 screening: Log(RedIndex),"cell line U251 (CNS:U251), TMI sheet",1.27
same,NCI-60 screening: Log(RedIndex),"cell line UACC-62 (ME:UACC-62), TMI sheet",1.05
same,NCI-60 screening: Log(RedIndex),"cell line UACC-257 (ME:UACC-257), TMI sheet",0.86
same,mean reductive index,"mean over NCI cell lines, vs P-CC60",14
same,reductive index,"span over NCI cell lines, vs P-CC60",≤ 30
